# Measured values as given in publication PMC7139824, “Molecular Mechanisms of PARP-1 Inhibitor 7-Methylguanine” (International Journal of Molecular Sciences, 2020).
# What was measured:
# [1] = target: T1, poly(ADP-ribose) polymerase 1 (PARP-1) (Homo sapiens, UniProt P09874); test: real-time fluorescence anisotropy activity assay, purified PARP-1 with DNA duplex; competitive kinetics vs NAD+; assay type: biochemical
# T1 construct: gene PARP1
# [2] = target: T1, poly(ADP-ribose) polymerase 1 (PARP-1); test: fluorescence anisotropy kinetics, reaction rate vs NAD+ concentration ([…]); assay type: biochemical
# T1 sequence (P09874 2-1014): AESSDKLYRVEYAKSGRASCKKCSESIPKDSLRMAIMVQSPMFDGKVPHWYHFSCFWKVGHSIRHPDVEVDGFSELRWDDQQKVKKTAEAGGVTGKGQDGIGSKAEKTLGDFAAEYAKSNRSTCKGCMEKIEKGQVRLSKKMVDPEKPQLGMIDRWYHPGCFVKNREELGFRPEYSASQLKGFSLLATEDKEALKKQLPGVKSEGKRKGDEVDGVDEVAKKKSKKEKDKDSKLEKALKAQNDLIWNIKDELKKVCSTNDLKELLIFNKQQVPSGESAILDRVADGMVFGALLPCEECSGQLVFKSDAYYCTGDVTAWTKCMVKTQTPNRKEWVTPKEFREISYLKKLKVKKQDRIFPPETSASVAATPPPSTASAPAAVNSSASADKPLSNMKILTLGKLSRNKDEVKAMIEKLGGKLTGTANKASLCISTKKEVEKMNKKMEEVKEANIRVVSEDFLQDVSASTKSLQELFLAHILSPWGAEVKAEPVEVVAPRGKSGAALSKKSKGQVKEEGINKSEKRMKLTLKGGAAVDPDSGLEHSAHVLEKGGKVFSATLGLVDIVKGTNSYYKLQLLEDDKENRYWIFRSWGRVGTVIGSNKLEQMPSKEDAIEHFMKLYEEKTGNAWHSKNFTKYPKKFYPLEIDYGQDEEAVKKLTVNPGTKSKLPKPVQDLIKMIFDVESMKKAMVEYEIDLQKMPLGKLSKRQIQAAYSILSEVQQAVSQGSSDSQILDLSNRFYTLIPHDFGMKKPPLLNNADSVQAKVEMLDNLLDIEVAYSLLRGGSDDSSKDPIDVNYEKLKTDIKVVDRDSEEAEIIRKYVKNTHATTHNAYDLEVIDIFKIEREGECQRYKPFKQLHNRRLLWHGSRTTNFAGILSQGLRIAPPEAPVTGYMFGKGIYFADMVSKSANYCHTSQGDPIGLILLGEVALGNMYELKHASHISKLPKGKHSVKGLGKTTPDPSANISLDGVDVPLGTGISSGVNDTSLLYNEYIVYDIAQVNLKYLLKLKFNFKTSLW
Ki [1],SMILES,"fluorescence anisotropy kinetics, reaction rate vs NAD+ concentration (0-2500 μM) [2]"
61 ± 9 µM,"Cn1cnc2nc(N)[nH]c(=O)c21 [7-MG, 7-methylguanine]",
,NC(=O)c1ccc[n+]([C@@H]2O[C@H](COP(=O)([O-])OP(=O)(O)OC[C@H]3O[C@@H](n4cnc5c(N)ncnc54)[C@H](O)[C@@H]3O)[C@@H](O)[C@H]2O)c1 [NAD^+],Dependence of the PARP-1-catalyzed reaction rate on the NAD^+ concentration at different concentrations of 7-MG
